Test results: patent publication US9050301B2, “Pharmaceutical composition for treatment of corneal endothelial wounds containing angiogenin” (Chung-Ang University Industry-Academy Cooperation Foundation, priority 2013, dated 2015)

Tests used:
[1] = system: rabbit corneal endothelial cells; test: In vitro scratch wound healing of cultured rabbit corneal endothelial cells; assay type: cell-based; conditions: for Wound healing index: angiogenin 2 μg/ml, mean ± SE
Method: A corneal endothelial tissue segment obtained from remaining corneal portions other than the central 8 mm corneal portion in cadaveric cornea donated for transplantation and a corneal endothelial tissue segment of a normal rabbit were cultured. Then, each of the corneal tissues was divided into 6 pieces and washed by shaking 6 times in a petri dish to which 7 ml of 5% penicillin/streptomycin (P/S) was added. Then, the washed tissues were each transferred to a 6-well dish such that the endothelial layer was facing down, and the tissues were semi-dried until the dishes were slightly drained. Next, the corneal endothelial cells of the rabbit cornea were cultured in a culture medium (EGM™-2BulletKit™, Lonza, Allendale, USA) containing human epidermal growth factor (hEGF), hydrocortisone, 5% fetal bovine serum (FBS), human […] (hFGF), insulin-like growth factor (IGF), ascorbic acid, gentamicin, and amphotericin-B (EGM™-2BulletKit™, Lonza, Allendale, USA), and the corneal endothelial cells of the human cornea were cultured in a culture medium (Opti-MEM®, Gibco®, New York, USA) supplemented with 8% FBS, calcium (CaCl2), chondroitinsulfate, ascorbic acid, multi-vitamin solution, gentamicin, anti-Pseudomonas aeruginosa antibiotic, pituitary extract, epidermal growth factor (EGF), and nerve growth factor (NGF), for about 5 to 7 days.
Experiments have been carried to identify angiogenin effects on migration and proliferation of the corneal endothelial cells. When the cultured rabbit corneal endothelial cells had about 80-90% confluency in three 6-well dishes, the central part of each well was scratched by a tip of a 200 μl pipette to make wounds. Then, each of the three 6-well dishes was replaced by a culture medium containing 1) 5% FBS (in the control group), 2) Y-27632 (10 μM), and 3) angiogenin (2 μg/ml). At every 0 hour, 12 hours, 24 hours, and 48 hours, digital images of the remaining wounded areas were obtained at 40× magnification of the optical microscope, and measured in pixels by using the Image J software. In addition, each of the three 6-well dishes containing the cultured corneal endothelial cells in the human was scratched in the same manner as described above to make wounds, and then, replaced by a culture medium containing 1) 5% FBS (in the control group), 2) Y-27632 (10 μM), and 3) angiogenin (5 μg/ml). At every 6 hours and 24 hours, the wounded areas were measured by using the Image J software. The ratio of initial wounded area versus recovered area was defined as wound healing index, which is calculated as shown below. Here, the initial wounded area was corrected to be equal before the calculation. Wound healing index(%)=(Initial wounded area−Remaining wounded area)/Initial wounded area

[2] = system: rabbit corneal endothelium; test: Central corneal thickness by ultrasonic pachymeter after trans-corneal freezing damage; assay type: in vivo
Method: (§1) 30 eyeballs of 15 healthy white New Zealand rabbits weighing about 2.0 kg to about 3.0 kg without external opacification were anesthetized by intramuscular injection with 12.5 mg/kg of tiletamine/zolazepam (Zoletil®, VirbacLab, France) and 12.5 mg/kg of zylazine (Rompun®, BayerKorea, Korea). Afterwards, 0.5% povidone-iodine was used for disinfection of the whole range of experimental sight. Referring to FIG. 1, an 8 mm-diameter stainless steel rod as a probe was immersed in liquid nitrogen for 3 minutes, removed therefrom once the temperature of the liquid nitrogen reached −196° C., and brought into contact to the central cornea for 15 seconds. Then, each of the eyeballs was washed with 10 cc of 0.9% saline solution. In order to prevent the occurrence of corneal infection, the rabbit corneas were given instillation of Levofloxacin (Cravit®, Santen, Japan) three times a day for 3 days after the damage was induced.
(§2) 3 groups consisting of 10 eyeballs given instillation of angiogenin (200 μg/mL), 7 eyeballs given Y-27632 (10 mM) inhibitor of Rho-associated coiled-coil kinase (ROCK) pathway, and 7 eyeballs as a control group given phosphate-buffered solution (PBS) were each subjected to 50 μl of instillation at a time, and more particularly, 6 times a day for the first 2 days, and then, 4 times a day for the following 2 days, starting immediately after inducing freeze-damages to the trans-corneal endothelium. That is, the instillation was performed 20 times in total for 4 days.
After inducing freeze-damages to trans-corneal of all the eyeballs from the group given instillation of angiogenin, the group given instillation of Y-27632, and the control group, the central corneal thickness was measured 3 times by using an ultrasonic corneal pachymeter (POCKET-II, Quantel medical, Clemont-Ferrand, France) at every 48 hours (2nd day), 72 hours (3rd day), 144 hours (6th day), and 192 hours (8th day), thereby calculating a mean value thereof. Here, the maximum measurable value of the ultrasonic corneal pachymeter was referred to 1,000 μm so the maximum corneal thickness was also considered as 1,000 μm.

[3] = system: rabbit corneal endothelium; test: Ratio of corneas without opacity and edema (digital camera images) after trans-corneal freezing damage; assay type: in vivo; conditions: angiogenin 200 μg/mL
Method: as §1, §2
Then, the groups were subjected to the evaluation of corneal opacity and corneal edema by using a digital camera (VLUUNV100HD, Samsung, Suwon, Korea) to obtain images taken in a diagonal direction.
Experiments have been carried out to identify effects of angiogenin-induced PI3k-Akt signaling pathway in terms of recovering the corneal transparency after inducing damages to the corneal endothelium. After inducing freeze-damages to the corneal endothelium, 4 eyeballs out of 30 rabbit eyeballs in total were subjected to 50 μl of each of 200 μg/mL of angiogenin and 200 μM of PI3k-Akt pathway inhibitor, LY294002 instillation at a time every 3 minutes, and more particularly, 6 times a day for the first 2 days, and then, 4 times a day for the following one day. That is, the instillation was performed 16 times in total for 3 days.

[4] = system: rabbit corneal endothelium; test: Alizarin red S-staining of corneal endothelium wounded area; assay type: in vivo; conditions: for Corneal endothelium wounded area observed by alizarin red S-staining: 192 hours (8th day) after freeze damage, compared with control group (p=0.050); for Morphology (hexagonality) of endothelial cells around the wounded area: 192 hours, 200× magnification
Method: as §1, §2
Two eyeballs out of 30 eyeballs in total were each used as a negative control group of normal corneal endothelium and as a positive control group being subjected to alizarin red S-staining immediately after inducing freeze-damages to the trans-corneal endothelium. An overdose of KCl was administrated into the rest of the eyeballs by intramuscular injection 192 hours (8th day) after inducing freeze-damages to the trans-corneal, and accordingly, these eyeballs were sacrificed. Then, 3 eyeballs were removed for each of the control group, the group given angiogenin instillation, and the group given Y-27632 instillation. Then, the whole cornea was pulled off with respect to the corneal limbal boundary, immersed in 1% alizarin red S-staining solution (Lab Chem, Pittsburgh, USA) for 2 minutes, washed with 0.9% saline solution, and then, wet-mount with the endothelium facing upward. Images thereof were immediately obtained after observation by using an optical microscope, and then, the wounded area of the cornea was measured in pixels for a digital image at 40× magnification by using the Image J software (National Institutes of Health (NIH); http://rsbweb.nih.gov/ij/), and the endothelial cells around the wounded areas were observed and compared in terms of hexagonality at 200× magnification.

[5] = 48 h after freeze damage, maximum measurable value 1,000 μm
[6] = 72 h after freeze damage, maximum measurable value 1,000 μm
[7] = 144 h after freeze damage, angiogenin 200 μg/mL, Y-27632 10 mM instillation, mean ± SE
[8] = 192 h after freeze damage, angiogenin 200 μg/mL, Y-27632 10 mM instillation, mean ± SE
[9] = 48 h after freeze damage, Y-27632 10 mM instillation
[10] = 72 h after freeze damage, Y-27632 10 mM, LY294002 200 μM instillation
[11] = 144 h after freeze damage, Y-27632 10 mM instillation
[12] = 192 h after freeze damage, Y-27632 10 mM instillation

With `C[C@@H](N)[C@H]1CC[C@H](C(=O)Nc2ccncc2)CC1` [Y-27632, reference compound] the “Wound healing index compared with the control group” value ([1]; Y-27632 10 μM, 12, 24, 48 hours) was “did not show significant difference”, the Central corneal thickness ([2]; 0 h (baseline), mean ± SE) was 361.7 ± 3.4 μm and the Central corneal thickness [2, 5] was >1,000 μm. For the same compound, the Central corneal thickness [2, 6] was >1,000 μm, the Central corneal thickness [2, 7] was 571.6 ± 43.0 μm and the Central corneal thickness [2, 8] was 432.5 ± 332.2 μm. The “Ratio of number of cornea without opacity and edema (digital camera images)” value [3, 9] was 0%, the “Ratio of number of cornea without opacity and edema (digital camera images)” value [3, 10] was 14.3% and the “Ratio of number of cornea without opacity and edema (digital camera images)” value [3, 11] was 14.3%. The “Ratio of number of cornea without opacity and edema (digital camera images)” value [3, 12] was 14.3%, the “Corneal endothelium wounded area observed by alizarin red S-staining” value [4] was “smaller wounded areas than those of the control group” and the “Morphology (hexagonality) of endothelial cells around the wounded area” value [4] was “significant modification of cell morpology”.

For “Angiogenin: 14.4-kDa single chain protein of 123 amino acids, secreted protein capable of inducing angiogenesis”, the Wound healing index ([1]; 12 hours) was 28.7±2.9%, the Wound healing index ([1]; 24 hours) was 66.7±4.3% and the Wound healing index ([1]; 48 hours) was 78.7±2.9%. For the same compound, the Central corneal thickness ([2]; 0 h (baseline), mean ± SE) was 350.4 ± 6.2 μm, the Central corneal thickness [2, 5] was >1,000 μm and the Central corneal thickness [2, 6] was >1,000 μm. For the same compound, the Central corneal thickness [2, 7] was 503.0 ± 21.1 μm, the Central corneal thickness ([2]; 144 h after freeze damage, angiogenin 200 μg/mL, Y-27632 10 mM instillation, mean ± SE, listed as angiogenin) was “about 503.0±21.07 μm” and the Central corneal thickness [2, 8] was 390.3 ± 10.5 μm. For the same compound, the Central corneal thickness ([2]; 192 h after freeze damage, angiogenin 200 μg/mL, Y-27632 10 mM instillation, mean ± SE, listed as angiogenin) was “about 390.3±10.55 μm”, the “Ratio of number of cornea without opacity and edema (digital camera images)” value [3, 9] was 10% and the “Ratio of number of cornea without opacity and edema (digital camera images)” value [3, 10] was 20%. For the same compound, the “Ratio of number of cornea without opacity and edema (digital camera images)” value [3, 11] was 37.5%, the “Ratio of number of cornea without opacity and edema (digital camera images)” value [3, 12] was 50% and the “Corneal endothelium wounded area observed by alizarin red S-staining” value [4] was “smallest the corneal endothelium wounded area”. For the same compound, the “Morphology (hexagonality) of endothelial cells around the wounded area” value [4] was “corneal endothelial cells in even hexagonality”.
